According to publication PMC10789823, “Synthesis, structural characterizations, in vitro biological evaluation and computational investigations of pyrazole derivatives as potential antidiabetic and antioxidant agents” (Scientific Reports, 2024):
“And” between values parts separate entries of the source, which are not always exact repeats. Equal values may be shown once. Read-outs that look alike come from different tables or passages of the source.

Experiments:
[1] = DPPH radical scavenging activity assay; details: called SC50; mean ± standard deviation (n = 3)
Experimental: (§1) The antioxidant activities of the title compound were determined in vitro by DPPH, ABTS, FRAP and hydrogen peroxide activity (H2O2) methods according to the procedures described in our previous works.
The DPPH radical activity assay was performed following (Huang et al., 2011) with minor modification. The method using the stable free radical 2,2-diphenyl-1-picrylhydrazyl (DPPH) is based upon the reduction of DPPH free radical. Different concentrations of the prepared compounds (500, 250, 125, 62.5, 31.25 µM) were tested. The DPPH solution was prepared by dissolving 3,9mg of DPPH in 50 mL of the methanol. Then, 50µL of each concentration was added to 1,2ml of methanol and 250µL of the prepared DPPH solution […]. The reaction mixture incubated in the dark for 30 min. The control was prepared by adding 1,25 mL of methanol to 250 µL of DPPH. Ascorbic acid was used as the standard. The absorbances of solutions were spectrophotometrically examined at 517 nm. The radical activity is expressed as inhibition ratio of initial concentration of DPPH radical and is calculated according to the formula: […]
Where AbsDPPH is the absorbance of DPPH radical and Abssample is the absorbance in the presence of sample.

ABTS assay = details: for IC50: called SC50, mean ± standard deviation (n = 3)
Experimental: as §1
The ABTS assay was performed as previously described by (Tuberoso et al., 2013). ABTS+ radical was generated by oxidation of ABTS with potassium persulfate. The blue-green ABTS was produced through the reaction between 2 mM ABTS and 70 mM potassium persulfate in water. The mixture was left to stand in the dark for 12–16 h before use. The ABTS+ solution as diluted with methanol to an absorbance of 0.700 ± 0.005 at 734 nm. Then 2 mL of diluted ABTS solution were mixed with 100 μL of samples and absorbance was measured after 1 min incubation at room temperature. A standard curve was obtained by using Ascorbic acid as standard solution.

[2] = Ferric reducing power assay (FRAP); details: mean ± standard deviation (n = 3)
Experimental: as §1
The ferric ion (Fe^3+) reducing power assay was performed as previously described by (Amarowicz et al., 2004) with minor modifications. Briefly, 1 mL of the samples were mixed with 2.5 mL of 0.2 M sodium phosphate buffer (pH 6.6) and 2.5 mL of 1% potassium ferricyanide. The mixtures were incubated in a […] water bath at 50 °C for 20 min. Then, 2.5 mL of 10% trichloroacetic acid was added and centrifuged at 3000 rpm for 10 min. Finally, 2.5 mL of the supernatant were mixed with 2.5 mL distilled water and 0.5 mL FeCl3 solution (0.1%, w/v). The absorbance was measured at 700 nm and the results were expressed as IC50.

[3] = Hydrogen peroxide activity (H2O2); details: mean ± standard deviation (n = 3)
Experimental: as §1
The hydrogen-donating activity, measured utilizing hydrogen peroxide radicals as the hydrogen acceptor was performed as previously described by (Muruhan et al., 2013) with minor modifications. Briefly a solution of hydrogen peroxide (40 mM) was prepared in phosphate buffer (pH 7.4). Different concentrations of the prepared compounds (62.5, 31.25, 15.62, 7.81 and 3.9 μM) were added to a hydrogen peroxide solution (0.6 mL, 40 mM). The absorbance of hydrogen peroxide at 230 nm was determined after 10 min against a blank solution containing phosphate buffer without hydrogen peroxide (or ascorbic acid as the control). The hydrogen peroxide percentage activity was then calculated using the following equation: […]

[4] = biological target: α-glucosidase from Saccharomyces cerevisiae (Saccharomyces cerevisiae, UniProt P53341); assay: biochemical
α-glucosidase from Saccharomyces cerevisiae, sequence (P53341 whole entry): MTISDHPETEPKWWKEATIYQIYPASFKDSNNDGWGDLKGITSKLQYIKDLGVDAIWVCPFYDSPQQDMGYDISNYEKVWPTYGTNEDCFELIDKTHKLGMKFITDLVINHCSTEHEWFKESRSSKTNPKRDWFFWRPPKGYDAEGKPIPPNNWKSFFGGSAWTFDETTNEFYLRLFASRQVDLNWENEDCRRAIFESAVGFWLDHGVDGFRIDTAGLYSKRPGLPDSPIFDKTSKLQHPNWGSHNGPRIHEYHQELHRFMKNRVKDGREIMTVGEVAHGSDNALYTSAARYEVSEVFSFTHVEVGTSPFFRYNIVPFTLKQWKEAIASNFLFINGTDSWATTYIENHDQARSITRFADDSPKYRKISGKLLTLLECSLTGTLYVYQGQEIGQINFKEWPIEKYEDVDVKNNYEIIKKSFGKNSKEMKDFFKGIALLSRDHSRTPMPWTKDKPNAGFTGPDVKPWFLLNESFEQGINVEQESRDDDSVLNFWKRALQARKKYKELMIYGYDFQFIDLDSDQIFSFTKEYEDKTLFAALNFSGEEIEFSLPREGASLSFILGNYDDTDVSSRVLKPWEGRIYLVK
Experimental: (§2) The α-glucosidase and α-amylase inhibitory activities of compounds Pyz-1 and Pyz-2 were determined using the method described in our previous works[48],[49].
(§3) All other reagents and standards were of analytical reagent grade.
The α-glucosidase inhibitory activity was performed by using (ρ-nitrophenyl-α-D-glucopyranoside) as a substrate according to the method described by (Kee et al., 2013),with minor modifications. The α-glucosidase method is based on the inhibition of the enzyme. α-glucosidase, which hydrolyses (4-Nitrophenyl-α-d-glucopyranoside) to α-d-glucopyranose and P-nitrophenol of yellow color. The target compound was dissolved in DMSO and all the evaluated samples were dissolved in tampon phosphate at a series of concentrations. A mixture of 150 µl of the sample and 100 µl of PBS (pH = 6.7) containing the α- glucosidase enzyme solution (0.1U/ml) was incubated at 37 ° C for 10 min, after incubation, 200µl of pNPG (1 mM) was added to the mixture. The mixtures were incubated at 37 °C for 30 min. Then 1 ml Na2CO3 (0.1 M) was added to stop the reaction. The absorbance was measured at 405 nm. The results were expressed in percentage of inhibition according to the following formula: […]
The same reaction mixture without α-glucosidase was used as negative control.

[5] = biological target: α-amylase from Bacillus licheniformis (Bacillus licheniformis, UniProt P06278); assay: biochemical; details: mean ± standard deviation (n = 3)
α-amylase from Bacillus licheniformis, sequence (P06278 30-512): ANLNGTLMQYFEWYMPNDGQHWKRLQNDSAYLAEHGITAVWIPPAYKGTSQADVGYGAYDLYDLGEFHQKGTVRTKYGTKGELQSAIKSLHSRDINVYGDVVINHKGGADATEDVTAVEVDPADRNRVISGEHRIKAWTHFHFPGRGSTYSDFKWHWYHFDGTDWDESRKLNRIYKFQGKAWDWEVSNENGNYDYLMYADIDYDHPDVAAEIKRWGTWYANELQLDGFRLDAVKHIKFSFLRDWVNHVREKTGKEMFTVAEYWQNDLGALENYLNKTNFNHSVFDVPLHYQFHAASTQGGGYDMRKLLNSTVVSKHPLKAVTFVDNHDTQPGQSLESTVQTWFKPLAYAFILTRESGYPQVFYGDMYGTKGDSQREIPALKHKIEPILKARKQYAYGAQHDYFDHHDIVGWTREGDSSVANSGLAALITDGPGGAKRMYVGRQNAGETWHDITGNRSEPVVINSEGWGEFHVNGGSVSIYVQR
Experimental: as §2, §3
The α-amylase assay was performed by reacting various concentrations of compounds with α-amylase and starch solution by following the DNSA method with minor modifications (Hashim et al., 2013). The evaluated samples were dissolved in tampon phosphate with various concentrations. The sample solution (10μL) was mixed with 240μL (sodium phosphate buffer 0.02M pH6.9) containing α-amylase (240U/mL), and incubated at 37°C for 20 min. After pre-incubation, 250 µL of 1% starch solution were added to each tube and incubated for 15 min. 1ml of dinitrosalicylic acid was added to stop the reaction, then incubate the solution in a water bath at 90°C for 10 min. The mixture was diluted with 1 mL deionized water and the absorbance (Abs) was measured at 540 nm.
The IC50 values were determined by the percentage of inhibitions at different concentrations.

xanthine oxidase = xanthine oxidase (Homo sapiens, UniProt P47989); assay: Xanthine oxidase inhibition assay (XO); assay type: biochemical; details: mean ± standard deviation (n = 3)
xanthine oxidase, sequence (P47989 whole entry, species assumed): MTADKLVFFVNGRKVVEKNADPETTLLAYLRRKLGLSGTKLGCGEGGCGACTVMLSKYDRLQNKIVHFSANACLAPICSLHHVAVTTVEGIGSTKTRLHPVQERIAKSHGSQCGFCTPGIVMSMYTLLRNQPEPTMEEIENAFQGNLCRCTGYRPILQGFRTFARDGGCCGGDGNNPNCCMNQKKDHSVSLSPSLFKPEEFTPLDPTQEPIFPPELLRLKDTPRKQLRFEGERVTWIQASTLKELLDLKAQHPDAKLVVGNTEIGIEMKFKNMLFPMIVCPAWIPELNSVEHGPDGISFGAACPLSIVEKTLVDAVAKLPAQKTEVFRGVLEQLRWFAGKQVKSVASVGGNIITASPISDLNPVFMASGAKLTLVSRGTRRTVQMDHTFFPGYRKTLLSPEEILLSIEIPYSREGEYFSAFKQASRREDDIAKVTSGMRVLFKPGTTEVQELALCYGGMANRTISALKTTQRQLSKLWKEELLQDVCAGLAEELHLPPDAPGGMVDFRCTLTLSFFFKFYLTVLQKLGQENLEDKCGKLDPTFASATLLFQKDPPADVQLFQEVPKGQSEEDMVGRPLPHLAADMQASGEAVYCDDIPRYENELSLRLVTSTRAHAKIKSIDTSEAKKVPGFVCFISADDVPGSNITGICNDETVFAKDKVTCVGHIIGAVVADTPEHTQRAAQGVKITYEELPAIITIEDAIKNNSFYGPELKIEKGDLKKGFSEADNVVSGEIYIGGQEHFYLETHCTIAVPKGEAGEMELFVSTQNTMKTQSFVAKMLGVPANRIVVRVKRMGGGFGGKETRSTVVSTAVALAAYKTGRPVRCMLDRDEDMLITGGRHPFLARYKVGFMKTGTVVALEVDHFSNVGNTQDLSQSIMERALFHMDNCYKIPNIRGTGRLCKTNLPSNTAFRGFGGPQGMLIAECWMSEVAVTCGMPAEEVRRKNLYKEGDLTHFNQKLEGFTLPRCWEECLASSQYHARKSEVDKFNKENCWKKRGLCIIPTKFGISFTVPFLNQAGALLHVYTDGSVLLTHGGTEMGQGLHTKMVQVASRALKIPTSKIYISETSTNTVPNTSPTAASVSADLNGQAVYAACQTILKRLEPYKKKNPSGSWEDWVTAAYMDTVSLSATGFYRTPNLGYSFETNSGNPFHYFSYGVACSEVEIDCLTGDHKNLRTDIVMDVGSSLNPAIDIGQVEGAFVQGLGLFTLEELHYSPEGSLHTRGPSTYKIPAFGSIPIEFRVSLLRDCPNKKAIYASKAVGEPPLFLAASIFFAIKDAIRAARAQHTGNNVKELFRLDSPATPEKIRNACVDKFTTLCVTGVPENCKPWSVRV
Experimental: The xanthine oxidase inhibitory activity of Pyz-1 and Pyz-2 was performed following the method described by Kostić et al.[50], with minor modifications. The samples were prepared at series of concentrations. 1.95 ml of 5 mM phosphate buffer pH 7.5 and 50 µl of enzyme solution was added to the mixtures. After pre-incubation at 25 °C for 15 min. 1 ml of substrate was added.

[6] = mean ± standard deviation (n = 3), read-out: IC50 α-Glucosidase

| Compound | IC50 [1] | IC50 (ABTS assay) | IC50 [2] | IC50 [3] | IC50 [4, 6] | IC50 [5] | IC50 [4] | IC50 (xanthine oxidase) | ABTS scavenging activity relative to Pyz-1 (ABTS assay; ratio of SC50 values, versus Pyz-1) |
| --- | --- | --- | --- | --- | --- | --- | --- | --- | --- |
| O=C1O[C@H]([C@@H](O)CO)C(O)=C1O [Ascorbic acid, reference compound] | 78.11 ± 0.68 µM | 22.5 ± 0.59 µM | 88.12 ± 0.23 µM | 7.45 ± 1.11 µM |  |  |  |  |  |
| Cc1cc(C(=O)NN)[nH]n1 [Compound 1, 5-methyl-1H-pyrazole-3-carbohydrazide] |  |  |  |  | 279 ± 4.03 µM | > 500 µM |  |  |  |
| Cc1cc(C(=O)NNC(=O)Nc2ccccc2)n[nH]1 [Pyz-1, 2-(5-methyl-1H-pyrazole-3-carbonyl)-N-phenylhydrazine-1-carboxamide] | 238.5 ± 1.12 µM | 79.77 ± 0.45 µM | 100.2 ± 0.79 µM | 31.5 ± 0.92 µM |  | 120 µM and 119 µM | 75.62 ± 0.56 µM | 24.3 ± 0.78 µM |  |
| Cc1cc(-c2nnc(S)n2N)n[nH]1 [Pyz-2, 4-amino-5-(5-methyl-1H-pyrazol-3-yl)-4H-1,2,4-triazole-3-thiol] | 139 ± 1.45 µM | 20.5 ± 0.87 µM | 62.62 ± 0.49 µM | 24.8 ± 1.23 µM | 95.85 ± 0.92 µM | 119 µM and 120 µM |  | 10.8 ± 0.54 µM | 3.88 fold |
